Measurements as given in ChEMBL document CHEMBL3351528, “Targeting dopamine D3 and serotonin 5-HT1A and 5-HT2A receptors for developing effective antipsychotics: synthesis, biological characterization, and behavioral studies” (J Med Chem, 2014).
Values belong to the molecule of their own block, whether it stands above or below them.

Experiments:
Heart [1] = assay: Cardiotoxicity in Langendorff-perfused Sprague-Dawley rat heart assessed as heart rate at 0.01 uM (reference value: 296.25 +/- 13.61 bpm); format: toxicity, tissue-based
Heart [2] = assay: Cardiotoxicity in Langendorff-perfused Sprague-Dawley rat heart assessed as heart rate at 0.1 uM (reference value: 296.25 +/- 13.61 bpm); format: toxicity, tissue-based
Heart [3] = assay: Cardiotoxicity in Langendorff-perfused Sprague-Dawley rat heart assessed as heart rate at 1 uM (reference value: 296.25 +/- 13.61 bpm); format: toxicity, tissue-based
Heart [4] = assay: Cardiotoxicity in Langendorff-perfused Sprague-Dawley rat heart assessed as heart rate at 10 uM (reference value: 296.25 +/- 13.61 bpm); format: toxicity, tissue-based
Heart [5] = assay: Cardiotoxicity in Langendorff-perfused Sprague-Dawley rat heart assessed as cycle length time at 0.01 uM (reference value: 203.61 +/- 9.17 ms); format: toxicity, tissue-based
Heart [6] = assay: Cardiotoxicity in Langendorff-perfused Sprague-Dawley rat heart assessed as cycle length time at 0.1 uM (reference value: 203.61 +/- 9.17 ms); format: toxicity, tissue-based
Heart [7] = assay: Cardiotoxicity in Langendorff-perfused Sprague-Dawley rat heart assessed as cycle length time at 1 uM (reference value: 203.61 +/- 9.17 ms); format: toxicity, tissue-based
Heart [8] = assay: Cardiotoxicity in Langendorff-perfused Sprague-Dawley rat heart assessed as cycle length time at 10 uM (reference value: 203.61 +/- 9.17 ms); format: toxicity, tissue-based
Heart [9] = assay: Cardiotoxicity in Langendorff-perfused Sprague-Dawley rat heart assessed as atrioventricular conduction time at 0.01 uM (reference value: 41.98 +/- 2.55 ms); format: toxicity, tissue-based
Heart [10] = assay: Cardiotoxicity in Langendorff-perfused Sprague-Dawley rat heart assessed as atrioventricular conduction time at 0.1 uM (reference value: 41.98 +/- 2.55 ms); format: toxicity, tissue-based
Heart [11] = assay: Cardiotoxicity in Langendorff-perfused Sprague-Dawley rat heart assessed as atrioventricular conduction time at 1 uM (reference value: 41.98 +/- 2.55 ms); format: toxicity, tissue-based
Heart [12] = assay: Cardiotoxicity in Langendorff-perfused Sprague-Dawley rat heart assessed as atrioventricular conduction time at 10 uM (reference value: 41.98 +/- 2.55 ms); format: toxicity, tissue-based
Heart [13] = assay: Cardiotoxicity in Langendorff-perfused Sprague-Dawley rat heart assessed as intraventricular conduction time at 0.01 uM (reference value: 12.33 +/- 0.29 ms); format: toxicity, tissue-based, Cardiac ventricle
Heart [14] = assay: Cardiotoxicity in Langendorff-perfused Sprague-Dawley rat heart assessed as intraventricular conduction time at 0.1 uM (reference value: 12.33 +/- 0.29 ms); format: toxicity, tissue-based, Cardiac ventricle
Heart [15] = assay: Cardiotoxicity in Langendorff-perfused Sprague-Dawley rat heart assessed as intraventricular conduction time at 1 uM (reference value: 12.33 +/- 0.29 ms); format: toxicity, tissue-based, Cardiac ventricle
Heart [16] = assay: Cardiotoxicity in Langendorff-perfused Sprague-Dawley rat heart assessed as intraventricular conduction time at 10 uM (reference value: 12.33 +/- 0.29 ms); format: toxicity, tissue-based, Cardiac ventricle
Heart [17] = assay: Cardiotoxicity in Langendorff-perfused Sprague-Dawley rat heart assessed as time duration of ventricular depolarization and repolarization at 0.01 uM (reference value: 71.61 +/- 4.21 ms); format: toxicity, tissue-based
Heart [18] = assay: Cardiotoxicity in Langendorff-perfused Sprague-Dawley rat heart assessed as time duration of ventricular depolarization and repolarization at 0.1 uM (reference value: 71.61 +/- 4.21 ms); format: toxicity, tissue-based
Heart [19] = assay: Cardiotoxicity in Langendorff-perfused Sprague-Dawley rat heart assessed as time duration of ventricular depolarization and repolarization at 1 uM (reference value: 71.61 +/- 4.21 ms); format: toxicity, tissue-based
Heart [20] = assay: Cardiotoxicity in Langendorff-perfused Sprague-Dawley rat heart assessed as time duration of ventricular depolarization and repolarization at 10 uM (reference value: 71.61 +/- 4.21 ms); format: toxicity, tissue-based
Heart [21] = assay: Cardiotoxicity in Langendorff-perfused Sprague-Dawley rat heart assessed as corrected time duration of ventricular depolarization and repolarization at 0.01 uM (reference value: 159.41 +/- 11.21 ms); format: toxicity, tissue-based
Heart [22] = assay: Cardiotoxicity in Langendorff-perfused Sprague-Dawley rat heart assessed as corrected time duration of ventricular depolarization and repolarization at 0.1 uM (reference value: 159.41 +/- 11.21 ms); format: toxicity, tissue-based
Heart [23] = assay: Cardiotoxicity in Langendorff-perfused Sprague-Dawley rat heart assessed as corrected time duration of ventricular depolarization and repolarization at 1 uM (reference value: 159.41 +/- 11.21 ms); format: toxicity, tissue-based
Heart [24] = assay: Cardiotoxicity in Langendorff-perfused Sprague-Dawley rat heart assessed as corrected time duration of ventricular depolarization and repolarization at 10 uM (reference value: 159.41 +/- 11.21 ms); format: toxicity, tissue-based
D(2) dopamine receptor = D(2) dopamine receptor (Homo sapiens, UniProt P14416)
D(2) dopamine receptor, sequence (P14416 whole entry): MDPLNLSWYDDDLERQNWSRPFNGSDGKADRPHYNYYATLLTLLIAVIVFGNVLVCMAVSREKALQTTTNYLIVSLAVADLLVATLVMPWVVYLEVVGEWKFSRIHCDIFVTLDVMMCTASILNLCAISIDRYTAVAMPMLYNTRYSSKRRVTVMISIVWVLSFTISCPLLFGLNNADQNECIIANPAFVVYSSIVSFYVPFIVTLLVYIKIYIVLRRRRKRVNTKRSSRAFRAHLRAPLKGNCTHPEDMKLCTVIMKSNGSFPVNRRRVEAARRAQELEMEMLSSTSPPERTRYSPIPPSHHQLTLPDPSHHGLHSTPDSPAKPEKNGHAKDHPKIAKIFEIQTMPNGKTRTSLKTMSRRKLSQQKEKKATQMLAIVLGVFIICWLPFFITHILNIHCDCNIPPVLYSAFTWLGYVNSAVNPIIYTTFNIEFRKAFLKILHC
Description: Binding affinity to dopamine D2 receptor (unknown origin)

[25] = molecular target: 5-hydroxytryptamine receptor 2A (Homo sapiens, UniProt P28223)
5-hydroxytryptamine receptor 2A, sequence (P28223 whole entry): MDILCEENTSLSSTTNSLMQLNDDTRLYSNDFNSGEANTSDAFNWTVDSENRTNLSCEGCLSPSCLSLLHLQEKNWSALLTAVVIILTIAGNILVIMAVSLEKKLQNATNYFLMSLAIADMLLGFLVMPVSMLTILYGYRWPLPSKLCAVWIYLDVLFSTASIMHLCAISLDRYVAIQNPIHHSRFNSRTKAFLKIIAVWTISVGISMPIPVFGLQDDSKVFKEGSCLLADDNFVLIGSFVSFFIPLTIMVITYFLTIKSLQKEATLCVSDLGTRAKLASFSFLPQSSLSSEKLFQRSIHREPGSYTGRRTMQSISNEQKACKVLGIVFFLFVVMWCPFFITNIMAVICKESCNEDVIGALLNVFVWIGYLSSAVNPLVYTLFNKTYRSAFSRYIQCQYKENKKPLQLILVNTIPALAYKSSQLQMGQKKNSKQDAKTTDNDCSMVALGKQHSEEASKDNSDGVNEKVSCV
Description: Binding affinity to 5HT2A receptor (unknown origin)

Mus musculus [26] = assay: Antipsychotic-like activity in sc dosed NMRI mouse assessed as reduction in MK801-induced locomotor activity dosed 15 to 30 mins before administration of MK801 measured for 60 mins; format: functional; conditions: read-out: MED
Mus musculus [27] = assay: Toxicity in NMRI mouse assessed as induction of catalepsy at 30 mg/kg, sc dosed 30 mins before test; format: organism-based; design: dose 30 mg/kg, route subcutaneous; conditions: in vivo, 0.5 h
D(3) dopamine receptor = D(3) dopamine receptor (Homo sapiens, UniProt P35462)
D(3) dopamine receptor, sequence (P35462 whole entry): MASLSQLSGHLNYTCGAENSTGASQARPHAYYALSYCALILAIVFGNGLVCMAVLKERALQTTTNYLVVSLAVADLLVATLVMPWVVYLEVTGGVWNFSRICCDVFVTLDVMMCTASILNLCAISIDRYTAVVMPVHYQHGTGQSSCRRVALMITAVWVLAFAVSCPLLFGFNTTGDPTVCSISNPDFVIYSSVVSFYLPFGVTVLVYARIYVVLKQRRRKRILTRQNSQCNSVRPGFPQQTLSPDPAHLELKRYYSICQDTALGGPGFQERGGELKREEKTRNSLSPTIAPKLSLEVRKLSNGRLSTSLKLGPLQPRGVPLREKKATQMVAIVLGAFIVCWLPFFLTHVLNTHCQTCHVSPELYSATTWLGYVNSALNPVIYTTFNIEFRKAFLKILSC
Description: Binding affinity to dopamine D3 receptor (unknown origin)

[28] = molecular target: T1, 5-hydroxytryptamine receptor 1A (Homo sapiens, UniProt P08908)
T1 sequence (P08908 whole entry): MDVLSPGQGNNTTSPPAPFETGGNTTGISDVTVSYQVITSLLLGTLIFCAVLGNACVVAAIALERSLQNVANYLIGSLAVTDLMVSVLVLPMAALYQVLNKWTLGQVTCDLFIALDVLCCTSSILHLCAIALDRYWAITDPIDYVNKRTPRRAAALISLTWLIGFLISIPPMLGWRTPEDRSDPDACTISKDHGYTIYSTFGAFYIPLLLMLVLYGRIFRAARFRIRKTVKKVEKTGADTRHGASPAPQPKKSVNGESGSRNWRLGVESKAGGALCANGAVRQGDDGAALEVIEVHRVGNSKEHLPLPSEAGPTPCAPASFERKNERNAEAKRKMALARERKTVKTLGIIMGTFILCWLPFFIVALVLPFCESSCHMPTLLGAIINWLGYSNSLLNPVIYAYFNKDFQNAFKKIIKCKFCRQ
Description: Binding affinity to 5HT1A receptor (unknown origin)

[29] = molecular target: T2, 5-hydroxytryptamine receptor 2C (Homo sapiens, UniProt P28335)
T2 sequence (P28335 whole entry): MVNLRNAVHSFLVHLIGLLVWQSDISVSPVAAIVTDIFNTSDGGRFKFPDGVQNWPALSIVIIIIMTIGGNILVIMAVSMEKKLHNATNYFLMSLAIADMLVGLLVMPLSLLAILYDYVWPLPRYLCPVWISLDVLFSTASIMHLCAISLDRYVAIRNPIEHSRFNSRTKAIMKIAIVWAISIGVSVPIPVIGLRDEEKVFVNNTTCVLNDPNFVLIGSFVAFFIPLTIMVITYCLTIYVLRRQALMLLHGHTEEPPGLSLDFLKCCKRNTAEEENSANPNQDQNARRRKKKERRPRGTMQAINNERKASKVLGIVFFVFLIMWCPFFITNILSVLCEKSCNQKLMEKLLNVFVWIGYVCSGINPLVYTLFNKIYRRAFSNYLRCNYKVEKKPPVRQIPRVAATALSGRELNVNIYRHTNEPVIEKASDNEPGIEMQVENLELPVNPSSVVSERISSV
Description: Binding affinity to 5HT2C receptor (unknown origin)

Mus musculus [30] = organism: Mus musculus; conditions: in vivo, sc, 0.5 h
Description: Effect on spontaneous exploratory locomotor activity in sc dosed NMRI mouse measured for 30 mins with activity counts each 5 mins

Mus musculus [31] = organism: Mus musculus; assay: animal or person; conditions: NMRI, sc, read-out: MED
Description: Antipsychotic-like activity in sc dosed NMRI mouse assessed as reduction in methamphetamine-induced locomotor activity dosed 15 to 30 mins before administration of methamphetamine measured for 60 mins

Mus musculus [32] = assay: Toxicity in NMRI mouse assessed as induction of sedation at 10 and 30 mg/kg, sc dosed 30 mins before test; format: organism-based; design: dose 30 mg/kg, route subcutaneous; conditions: in vivo, 0.5 h
Mus musculus [33] = organism: Mus musculus; assay: animal or person; conditions: NMRI, sc, read-out: MED; remark: listed apart in the source
Description: Antipsychotic-like activity in sc dosed NMRI mouse assessed as reduction in PCP-induced locomotor activity dosed 15 to 30 mins before administration of methamphetamine measured for 60 mins

Compound: Cl.O=C(NCCCCN1CCN(c2ccccc2)CC1)c1ccc2ncccc2c1
Activity (Heart [1]): 302.2 bpm | Activity (Heart [2]): 308.58 bpm | Activity (Heart [3]): 297.7 bpm | Activity (Heart [4]): 280.67 bpm | Time (Heart [5]): 199.43 ms | Time (Heart [6]): 194.96 ms | Time (Heart [7]): 204.53 ms | Time (Heart [8]): 218.07 ms | Time (Heart [9]): 41.95 ms | Time (Heart [10]): 42.32 ms | Time (Heart [11]): 41.51 ms | Time (Heart [12]): 44.51 ms | Time (Heart [13]): 13.17 ms | Time (Heart [14]): 12.7 ms | Time (Heart [15]): 13.38 ms | Time (Heart [16]): 14.24 ms | Time (Heart [17]): 70.61 ms | Time (Heart [18]): 71.4 ms | Time (Heart [19]): 71.03 ms | Time (Heart [20]): 73.96 ms | Time (Heart [21]): 158.61 ms | Time (Heart [22]): 162.06 ms | Time (Heart [23]): 158.14 ms | Time (Heart [24]): 159.76 ms

Ki (D(2) dopamine receptor): 286 nM | Ki [25]: 15 nM | Ki (D(3) dopamine receptor): 5 nM | Ki [28]: 8 nM | Ki [29]: 169 nM | MED (Mus musculus [30]): <= 3 mg kg-1
Compound: Cc1cccc(N2CCN(CCCCNC(=O)c3cc4ccccc4cn3)CC2)c1
minimal effective dose (Mus musculus [26]): 3 mg/kg | Activity (Mus musculus [27]): Non-toxic | minimal effective dose (Mus musculus [31]): ≤ 3 mg/kg

Ki (D(2) dopamine receptor): > 1000 nM | Ki [25]: 33 nM | Ki (D(3) dopamine receptor): 9.4 nM | Ki [28]: 7.9 nM | Ki [29]: 190 nM | MED (Mus musculus [30]): 10 mg/kg
Compound: COc1cccc(N2CCN(CCCCNC(=O)c3cc4ccccc4cn3)CC2)c1
minimal effective dose (Mus musculus [26]): 10 mg/kg | Activity (Mus musculus [32]): Toxic | minimal effective dose (Mus musculus [31]): ≤ 1 mg/kg | minimal effective dose (Mus musculus [33]): 10 mg/kg
